From patent publication US8435978B2, “Substituted sulfonamide compounds” (Gruenenthal GmbH, priority 2006, dated 2013) come the findings set out here.

Where a name gives a salt, the structure may show the parent alone.

For one assay, the target named is T1, B1R receptor of the rat (Rattus norvegicus, UniProt P97583).
T1 construct: host or cells: CHO K1 cells (Chinese hamster ovary), stably transfected
T1 sequence (P97583 1-337): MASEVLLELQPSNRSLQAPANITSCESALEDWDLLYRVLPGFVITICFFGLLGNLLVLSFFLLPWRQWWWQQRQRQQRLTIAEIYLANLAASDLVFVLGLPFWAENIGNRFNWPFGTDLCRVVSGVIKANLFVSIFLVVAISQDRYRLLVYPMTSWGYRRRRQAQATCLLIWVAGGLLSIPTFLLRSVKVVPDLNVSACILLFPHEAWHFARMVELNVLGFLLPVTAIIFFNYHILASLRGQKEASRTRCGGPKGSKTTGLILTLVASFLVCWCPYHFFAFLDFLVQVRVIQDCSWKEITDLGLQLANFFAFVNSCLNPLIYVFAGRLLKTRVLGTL
The experiment in a line: Functional study on the bradykinin receptor 1 (B1R), FLIPR Ca2+ assay, rB1R cells. It is filed as cell-based. As to conditions: agonist Des-Arg9-bradykinin 100 nM, % inhibition compared with the maximum achievable inhibition; for inhibition at 10 µM: CHO-K1, test substance 10 μM, read-out: B1R Antagonism, rat [10 μM] % Inhibition; for B1R Antagonism, rat [10 μM] % Inhibition: test substance 10 μM, rB1R CHO K1 cells. The essentials:
(§1)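 FLIPR Ca2+ assay in recombinant CHO K1 cells (human or rat B1R), Fluo-4 dye; 10 μM compound, 10 min, then EC-level agonist per species (0.5 nM Lys-Des-Arg9-BK human / 100 nM Des-Arg9-BK rat). Output: % inhibition vs maximum.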

Another assay deals with T2, human B1R receptor (Homo sapiens, UniProt P46663).
T2 construct: host or cells: CHO K1 cells (Chinese hamster ovary), stably transfected
T2 sequence (P46663 1-353): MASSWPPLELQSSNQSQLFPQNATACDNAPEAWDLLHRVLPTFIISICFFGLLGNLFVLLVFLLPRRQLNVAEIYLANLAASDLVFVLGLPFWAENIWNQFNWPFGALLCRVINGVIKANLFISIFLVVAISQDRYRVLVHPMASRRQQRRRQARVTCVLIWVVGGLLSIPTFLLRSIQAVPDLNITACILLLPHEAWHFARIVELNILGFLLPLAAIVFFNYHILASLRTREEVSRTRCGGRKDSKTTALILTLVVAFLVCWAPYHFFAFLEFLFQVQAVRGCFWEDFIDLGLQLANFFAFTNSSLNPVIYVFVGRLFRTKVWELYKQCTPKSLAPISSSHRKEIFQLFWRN
Kind of assay: Functional study on the bradykinin receptor 1 (B1R), FLIPR Ca2+ assay, hB1R cells. The following applies: agonist Lys-Des-Arg9-bradykinin 0.5 nM, % inhibition compared with the maximum achievable inhibition; for inhibition at 10 µM: CHO-K1, test substance 10 μM, read-out: B1R Antagonism, human [10 μM] % Inhibition; for B1R Antagonism, human [10 μM] % Inhibition: test substance 10 μM, hB1R CHO K1 cells. It is filed as cell-based. The essentials:
as §1

With `O=C(COCC1CCCCN1S(=O)(=O)c1cccc(Br)c1)N1CCC(CCN2CCCC2)CC1` (centres unmarked) [Example 124, 2-((1-(3-bromophenylsulfonyl)piperidin-2-yl)methoxy)-1-(4-(2-(pyrrolidin-1-yl)ethyl)piperidin-1-yl)ethanone], the inhibition at 10 µM on B1R receptor of the rat turned out to be 63.2%; at human B1R receptor it was 76.3%.

Consider `Cc1c(S(=O)(=O)N2CCCCC2COCC(=O)N2CCN(C3CCN(C)CC3)CC2)sc2ccc(Cl)cc12` (centres unmarked) [Example 151, 2-((1-(5-chloro-3-methylbenzo[b]thiophen-2-ylsulfonyl)piperidin-2-yl)methoxy)-1-(4-(1-methylpiperidin-4-yl)piperazin-1-yl)ethanone dihydrochloride], for which the values for the inhibition at 10 µM on B1R receptor of the rat and on human B1R receptor were 103% and 107%, respectively.

Regarding `O=C(COCC1CCCCN1S(=O)(=O)c1c(Cl)cc(Cl)cc1Cl)NCc1ccncc1` (centres unmarked) [Example 394, N-(pyridin-4-ylmethyl)-2-((1-(2,4,6-trichlorophenylsulfonyl)piperidin-2-yl)methoxy)acetamide], the values for the inhibition at 10 µM at B1R receptor of the rat and on human B1R receptor were 99.1% and 31.5%, respectively.

As to `COc1ccc2cc(S(=O)(=O)N3CCCCC3COCC(=O)N3CCN(C4CCN(C)CC4)CC3)ccc2c1` (centres unmarked) [Example 210, 2-((1-(6-methoxynaphthalen-2-ylsulfonyl)piperidin-2-yl)methoxy)-1-(4-(1-methylpiperidin-4-yl)piperazin-1-yl)ethanone], the inhibition at 10 µM at B1R receptor of the rat is 96%; on human B1R receptor, 106%.

With `COc1ccc(S(=O)(=O)N2CCCCC2COCC(=O)Nc2ccc(NC(=O)CN3CCCCC3)c(C)c2)cc1` (centres unmarked) [Example 557, 2-((1-(4-methoxyphenylsulfonyl)piperidin-2-yl)methoxy)-N-(3-methyl-4-(2-(piperidin-1-yl)acetamideo)phenyl)acetamide], on B1R receptor of the rat, the “B1R Antagonism, rat [10 μM] % Inhibition” value was found to be 87.56%. Also, the “B1R Antagonism, human [10 μM] % Inhibition” value on human B1R receptor is 29.73%.

With `COc1cc(C)c(S(=O)(=O)N2CCCC2COCC(=O)Nc2ccc3c(c2)ncn3C)c(C)c1` (centres unmarked) [Example 494, 2-((1-(4-methoxy-2,6-dimethylphenylsulfonyl)pyrrolidin-2-yl)methoxy)-N-(1-methyl-1H-benzo[d]imidazol-5-yl)acetamide], the inhibition at 10 µM on B1R receptor of the rat was 73.4%; on human B1R receptor it was 26.2%.

For the molecule `O=C(COCC1CCCN1S(=O)(=O)c1c(Cl)cccc1Cl)NCc1ccc(CN2CCCC2)cc1` (centres unmarked) [Example 322, 2-((1-(2,6-dichlorophenylsulfonyl)pyrrolidin-2-yl)methoxy)-N-(4-(pyrrolidin-1-ylmethyl)benzyl)acetamide], the inhibition at 10 µM is 98.7% at B1R receptor of the rat and 102% on human B1R receptor.

Consider `CCN(Cc1ccncc1)C(=O)COCC1CCCCN1S(=O)(=O)c1c(C)cc(OC)cc1C` (centres unmarked) [Example 510, N-ethyl-2-((1-(4-methoxy-2,6-dimethylphenylsulfonyl)piperidin-2-yl)methoxy)-N-(pyridin-4-ylmethyl)acetamide], for which the inhibition at 10 µM at B1R receptor of the rat stood at 102%; on human B1R receptor, 51.4%.

With `CN1CCCN(C(=O)COCC2CCCCN2S(=O)(=O)c2c(Cl)cccc2Cl)CC1` (centres unmarked) [Example 483, 2-((1-(2,6-dichlorophenylsulfonyl)piperidin-2-yl)methoxy)-1-(4-methyl-1,4-diazepan-1-yl)ethanone], the inhibition at 10 µM on B1R receptor of the rat is 104%; on human B1R receptor, 103%.

As to `O=C(COCC1CCCCN1S(=O)(=O)c1c(Cl)cccc1Cl)N1CCN(c2ccccc2F)CC1` (centres unmarked) [Example 442, 2-((1-(2,6-dichlorophenylsulfonyl)piperidin-2-yl)methoxy)-1-(4-(2-fluorophenyl)piperazin-1-yl)ethanone], the inhibition at 10 µM on B1R receptor of the rat turned out to be 98.6%; on human B1R receptor, 102%.

Regarding `COc1ccc(N2CCN(C(=O)COCC3CCCCN3S(=O)(=O)c3c(Cl)cccc3Cl)CC2)cc1` (centres unmarked) [Example 319, 2-((1-(2,6-dichlorophenylsulfonyl)piperidin-2-yl)methoxy)-1-(4-(4-methoxyphenyl)piperazin-1-yl)ethanone], the inhibition at 10 µM on B1R receptor of the rat was 100%; at human B1R receptor it was 104%.

`COc1cc(C)c(S(=O)(=O)N2CCCCC2COCC(=O)N2CCCC2c2ccc(N(C)C)cc2)c(C)c1` (centres unmarked) [Example 398, 1-(2-(4-(dimethylamino)phenyl)pyrrolidin-1-yl)-2-((1-(4-methoxy-2,6-dimethylphenylsulfonyl)piperidin-2-yl)methoxy)ethanone]: the results for the inhibition at 10 µM on B1R receptor of the rat and at human B1R receptor were 98% and 59.8%, respectively.

Regarding `O=C(COCC1CCCCN1S(=O)(=O)c1c(Cl)cccc1Cl)N1CCN(c2ccc(F)cc2)CC1` (centres unmarked) [Example 318, 2-((1-(2,6-dichlorophenylsulfonyl)piperidin-2-yl)methoxy)-1-(4-(4-fluorophenyl)piperazin-1-yl)ethanone], the inhibition at 10 µM at B1R receptor of the rat and at human B1R receptor was 102% in each case.

On to “1-(4-(3-chloro-5-(trifluoromethyl)pyridin-2-yl)piperazin-1-yl)-2-((1-(2,6-dichlorophenylsulfonyl)piperidin-2-yl)methoxy)ethanone [Example 485]”, for which, on B1R receptor of the rat, the “B1R Antagonism, rat [10 μM] % Inhibition” value amounted to 103.41%. For the same molecule, at human B1R receptor, the “B1R Antagonism, human [10 μM] % Inhibition” value is recorded as 65.25%.

With `COc1cc(C)c(S(=O)(=O)N2CCCC2COCC(=O)NCc2ccc(N(C)C)cc2)c(C)c1` (centres unmarked) [Example 576, N-(4-(dimethylamino)benzyl)-2-((1-(4-methoxy-2,6-dimethylphenylsulfonyl)pyrrolidin-2-yl)methoxy)acetamide], the results for the inhibition at 10 µM at B1R receptor of the rat and at human B1R receptor were 107% and 1.85%, respectively.

As for `CN1CCC(N2CCN(C(=O)COCC3CCCCN3S(=O)(=O)c3cccc(Cl)c3Cl)CC2)CC1` (centres unmarked) [Example 173, 2-((1-(2,3-dichlorophenylsulfonyl)piperidin-2-yl)methoxy)-1-(4-(1-methylpiperidin-4-yl)piperazin-1-yl)ethanone dihydrochloride], the inhibition at 10 µM at B1R receptor of the rat and at human B1R receptor was 101% each time.

`COc1ccc(S(=O)(=O)N2CCCCC2CCOCC(=O)N2CCC(CCN3CCCCC3)CC2)cc1` (centres unmarked) [Example 90, 2-(2-(1-(4-methoxyphenylsulfonyl)piperidin-2-yl)ethoxy)-1-(4-(2-(piperidin-1-yl)-ethyl)piperidin-1-yl)ethanone]: the inhibition at 10 µM was 99.5% at B1R receptor of the rat and 50% on human B1R receptor.

Consider `COc1ccc(S(=O)(=O)N2CCCCC2COCC(=O)N2CCN(Cc3cccc(C)c3)CC2)cc1` (centres unmarked) [Example 219, 2-((1-(4-methoxyphenylsulfonyl)piperidin-2-yl)methoxy)-1-(4-(3-methylbenzyl)piperazin-1-yl)ethanone], for which the inhibition at 10 µM turned out to be 96.2% on B1R receptor of the rat and 5.04% on human B1R receptor.

Turning to `COc1ccc(N2CCN(C(=O)COCC3CCCN3S(=O)(=O)c3c(C)cc(OC)cc3C)CC2)cc1` (centres unmarked) [Example 308, 2-((1-(4-methoxy-2,6-dimethylphenylsulfonyl)pyrrolidin-2-yl)methoxy)-1-(4-(4-methoxyphenyl)piperazin-1-yl)ethanone], the inhibition at 10 µM on B1R receptor of the rat came to 101%; on human B1R receptor it was 105%.

Turning to `CN1CCC(CN2CCN(C(=O)COC[C@@H]3Cc4ccccc4CN3S(=O)(=O)c3ccc(Cl)cc3Cl)CC2)CC1` [Example 184, (S)-2-((2-(2,4-dichlorophenylsulfonyl)-1,2,3,4-tetrahydroisoquinolin-3-yl)methoxy)-1-(4-((1-methylpiperidin-4-yl)methyl)piperazin-1-yl)ethanone], the inhibition at 10 µM at B1R receptor of the rat was found to be 99%; on human B1R receptor it was 105%.

Consider `COc1cc(C)c(S(=O)(=O)N2CCCC2COCC(=O)N2CCC(N3CCCCC3)CC2)c(C)c1` (centres unmarked) [Example 520, 1-(1,4′-bipiperidin-1′-yl)-2-((1-(4-methoxy-2,6-dimethylphenylsulfonyl)pyrrolidin-2-yl)methoxy)ethanone], for which the inhibition at 10 µM on B1R receptor of the rat came to 102%; at human B1R receptor, 103%.

`COc1cc(C)c(S(=O)(=O)N2CCCCC2COCC(=O)Nc2cc(-c3cccc(F)c3)[nH]n2)c(C)c1` (centres unmarked) [Example 542, N-(5-(3-fluorophenyl)-1H-pyrazol-3-yl)-2-((1-(4-methoxy-2,6-dimethylphenylsulfonyl)piperidin-2-yl)methoxy)acetamide]: the inhibition at 10 µM amounted to 107% at B1R receptor of the rat and 49.2% on human B1R receptor.

A word on the inhibition: it is the relative decrease from the control value, in per cent.
